This note sets out measurements from patent US10913753B2, “Thienopyridine carboxamides as ubiquitin-specific protease inhibitors” (FORMA Therapeutics, Inc., priority 2016, dated 2021).

One experiment has as its target USP25 (Homo sapiens (Human), UniProt Q9UHP3). The experiment in a line: Ubiquitin-Rhodamine 110 Assay for USP25 Activity. It counts as biochemical. The essentials: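 USP25-His6 (75 pM) preincubated 30 min with compound (25 μM to 1.3 nM, 10-point 3-fold), then Ub-Rh110 added; 45 min at room temperature in pH 8.0 Tris buffer with BME, BGG, Triton X-100, stopped with 10 mM citric acid. Fluorescence 485/535 nm; % inhibition vs no-enzyme and DMSO controls, IC50 by 4-parameter logistic fit.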

A further experiment addresses USP28 (Homo sapiens (Human), UniProt Q96RU2). The experiment in a line: Ubiquitin-Rhodamine 110 Assay for USP28 Activity. Type of experiment: biochemical. The essentials:
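Single-point screen at 10 μM, 90 min; follow-up dose-response (25 μM top, 3-fold) with 75 pM USP28 (1-1077)-TEV-6*His, 30 min compound preincubation, Ub-Rh110 substrate for 20 min at room temperature, citric acid stop. Buffer pH 8.0 Tris; fluorescence 485/535 nm; IC50 by 4-parameter logistic fit of % inhibition.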

Sequence of USP25 (Q9UHP3 whole entry): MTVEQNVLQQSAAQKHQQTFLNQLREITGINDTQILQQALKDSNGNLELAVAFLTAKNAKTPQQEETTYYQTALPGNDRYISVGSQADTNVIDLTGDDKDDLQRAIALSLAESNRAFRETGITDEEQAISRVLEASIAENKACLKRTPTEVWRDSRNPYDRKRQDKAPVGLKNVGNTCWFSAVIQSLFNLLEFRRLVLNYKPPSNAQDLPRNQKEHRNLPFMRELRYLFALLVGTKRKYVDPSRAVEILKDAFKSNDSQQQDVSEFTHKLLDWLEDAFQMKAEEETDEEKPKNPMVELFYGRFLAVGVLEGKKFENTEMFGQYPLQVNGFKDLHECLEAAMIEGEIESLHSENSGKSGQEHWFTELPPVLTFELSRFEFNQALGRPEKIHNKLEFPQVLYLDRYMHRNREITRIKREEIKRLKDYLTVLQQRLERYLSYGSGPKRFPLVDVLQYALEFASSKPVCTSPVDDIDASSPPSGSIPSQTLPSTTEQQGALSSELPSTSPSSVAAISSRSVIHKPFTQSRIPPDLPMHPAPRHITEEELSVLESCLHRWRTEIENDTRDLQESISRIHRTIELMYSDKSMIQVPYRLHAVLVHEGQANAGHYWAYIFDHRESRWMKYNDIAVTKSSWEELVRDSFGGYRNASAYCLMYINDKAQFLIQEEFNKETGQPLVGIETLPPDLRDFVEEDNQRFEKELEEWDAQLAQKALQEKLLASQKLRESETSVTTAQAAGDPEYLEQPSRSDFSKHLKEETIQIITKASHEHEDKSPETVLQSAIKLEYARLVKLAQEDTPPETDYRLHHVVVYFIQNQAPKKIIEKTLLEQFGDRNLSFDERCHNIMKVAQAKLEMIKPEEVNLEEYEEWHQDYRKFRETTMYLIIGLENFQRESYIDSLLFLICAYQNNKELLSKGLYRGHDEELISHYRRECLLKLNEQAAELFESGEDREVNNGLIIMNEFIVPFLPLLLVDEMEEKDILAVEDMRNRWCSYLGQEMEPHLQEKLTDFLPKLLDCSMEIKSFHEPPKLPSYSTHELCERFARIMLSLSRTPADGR
Sequence of USP28 (Q96RU2 whole entry): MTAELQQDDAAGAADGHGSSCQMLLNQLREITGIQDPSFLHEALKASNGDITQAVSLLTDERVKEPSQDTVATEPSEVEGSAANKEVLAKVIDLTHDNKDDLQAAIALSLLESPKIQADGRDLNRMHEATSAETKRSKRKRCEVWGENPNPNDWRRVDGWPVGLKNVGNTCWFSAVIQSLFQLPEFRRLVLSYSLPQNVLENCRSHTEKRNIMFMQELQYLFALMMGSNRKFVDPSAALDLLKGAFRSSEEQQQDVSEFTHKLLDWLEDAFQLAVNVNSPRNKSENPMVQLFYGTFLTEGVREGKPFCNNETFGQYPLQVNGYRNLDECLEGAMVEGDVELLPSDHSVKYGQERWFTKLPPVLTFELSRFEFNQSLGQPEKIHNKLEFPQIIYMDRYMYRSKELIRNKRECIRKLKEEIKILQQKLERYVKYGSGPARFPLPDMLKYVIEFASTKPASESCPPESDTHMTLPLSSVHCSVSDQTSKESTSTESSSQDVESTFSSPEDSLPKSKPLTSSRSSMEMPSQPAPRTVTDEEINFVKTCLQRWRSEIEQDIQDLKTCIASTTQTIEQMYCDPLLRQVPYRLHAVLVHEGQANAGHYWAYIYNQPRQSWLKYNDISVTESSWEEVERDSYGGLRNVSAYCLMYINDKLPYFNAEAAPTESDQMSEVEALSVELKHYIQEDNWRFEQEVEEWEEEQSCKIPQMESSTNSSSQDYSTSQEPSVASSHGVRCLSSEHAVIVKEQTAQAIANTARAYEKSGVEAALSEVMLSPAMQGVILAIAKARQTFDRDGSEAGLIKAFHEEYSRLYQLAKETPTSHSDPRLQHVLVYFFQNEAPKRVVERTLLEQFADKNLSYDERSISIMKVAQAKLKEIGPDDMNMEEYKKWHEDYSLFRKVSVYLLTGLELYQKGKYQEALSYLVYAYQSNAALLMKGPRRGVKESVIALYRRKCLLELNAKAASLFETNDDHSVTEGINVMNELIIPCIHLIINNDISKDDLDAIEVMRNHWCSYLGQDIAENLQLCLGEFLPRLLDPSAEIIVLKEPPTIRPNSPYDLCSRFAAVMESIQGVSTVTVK

As a reminder, the IC50 is the concentration that gives 50% inhibition. The low end stands for inhibition by little substance, the high end for a need for much substance. Take `Cc1ccc2c(N)c(C(=O)NCCc3cc(F)c(N4C[C@H]5C[C@@H]4CN5)cc3F)sc2n1` [Compound I-53]: the IC50 at USP25 and against USP28 was less than 200 nM each time.
Turning to `Cc1ccc2c(N)c(C(=O)NCCc3ccc(N4CC5CCC(C4)N5)c(C#N)c3)sc2n1` [Compound I-54], the figures for the IC50 at USP25 and against USP28 were 200 to 2000 nM and less than 200 nM, respectively.
On to `Cc1cc(Cl)nc2sc(C(=O)NCCc3ccc(N4CCNCC4)cc3)c(N)c12` [Compound I-56], for which the IC50 against USP25 and against USP28 was 200 to 2000 nM each time.
In the case of `CN1CCC(c2ccc(CCNC(=O)c3sc4nc(Cl)ccc4c3N)cc2)CC1` [Compound I-58], the IC50 was 200 to 2000 nM against USP25 and less than 200 nM against USP28.
The corresponding values for `CN1CCN(c2ccc(CCNC(=O)c3sc4nc(Cl)ccc4c3N)cc2)CC1` [Compound I-59] are 200 to 2000 nM and 200 to 2000 nM.
The corresponding values for `Nc1c(C(=O)NCCc2ccc(C3CCNCC3)cc2)sc2nc(Cl)ccc12` [Compound I-60] are 200 to 2000 nM and 200 to 2000 nM.
For the compound `Cc1cc2c(N)c(C(=O)NCCc3ccc(N4CCNCC4)cc3)sc2nc1C` [Compound I-61], the IC50 is 2000 to 10000 nM on USP25 and 200 to 2000 nM at USP28.
The corresponding values for `Cc1cc(C(F)F)nc2sc(C(=O)NCCc3ccc(N4CCNCC4)cc3)c(N)c12` [Compound I-62] are less than 200 nM and less than 200 nM.
The corresponding values for `Cc1nc2sc(C(=O)NCCc3ccc(N4CCNCC4)cc3)c(N)c2cc1F` [Compound I-63] are 200 to 2000 nM and less than 200 nM.
The corresponding values for `Cc1ccc2c(N)c(C(=O)NCCc3ccc(N4C5CNCC4C5)cc3)sc2n1` [Compound I-64] are less than 200 nM and less than 200 nM.
Turning to `Cc1ccc2c(N)c(C(=O)NCCc3ccc(N4CC5CC(C4)N5)cc3)sc2n1` [Compound I-65], the IC50 against USP25 and at USP28 was less than 200 nM throughout.
`COc1nc2sc(C(=O)NCCc3cc(F)c(N4CCNCC4)cc3F)c(N)c2cc1F` [Compound I-68]: the results for the IC50 against USP25 and against USP28 were 2000 to 10000 nM and 200 to 2000 nM, respectively.
`Nc1c(C(=O)NCCc2cc(F)c(N3CC4CCC(C3)N4)cc2F)sc2ncc(F)cc12` [Compound I-69]: the results for the IC50 against USP25 and at USP28 were 200 to 2000 nM and less than 200 nM, respectively.
The corresponding values for `Cc1ccc2c(N)c(C(=O)NCCc3cc(F)c(NC4CNC4)cc3F)sc2n1` [Compound I-70] are 200 to 2000 nM and less than 200 nM.
Regarding `Cc1nc2sc(C(=O)NCCc3ccc(N4CC5CCC(C4)N5)c(C#N)c3)c(N)c2cc1F` [Compound I-71], the IC50 against USP25 and against USP28 was 200 to 2000 nM throughout.
Regarding `Cc1nc2sc(C(=O)NCCc3cc(F)c(N4CC5CCC(C4)N5)cc3F)c(N)c2cc1F` [Compound I-72], the IC50 at USP25 is 200 to 2000 nM; against USP28, less than 200 nM.
For the compound `Cc1ccc2c(N)c(C(=O)NCCc3ccc(C4CCNCC4)cc3F)sc2n1` [Compound I-170], the values for the IC50 against USP25 and on USP28 were 200 to 2000 nM and less than 200 nM, respectively.
Consider `Cc1ccc2c(N)c(C(=O)NCCc3ccc(N4CC[C@@H](NC(C)C)C4)cc3)sc2n1` [Compound I-201], for which the IC50 at USP25 and against USP28 was 200 to 2000 nM each time.
In the case of `Cc1cc(C(F)(F)F)c2c(N)c(C(=O)NCCc3ccc(N4CCNCC4)cc3)sc2n1` [Compound I-204], the values for the IC50 against USP25 and at USP28 were less than 200 nM and 200 to 2000 nM, respectively.
With `Cc1ccc2c(N)c(C(=O)NCCc3ccc(C4CCNCC4)c(Cl)c3)sc2n1` [Compound I-205], the IC50 was 200 to 2000 nM against USP25 and less than 200 nM at USP28.
Consider `CCc1nc2sc(C(=O)NCCc3ccc(N4CCNCC4)cc3)c(N)c2cc1F` [Compound I-206], for which the IC50 on USP25 and on USP28 was less than 200 nM in each case.
As to `Cc1ccc2c(N)c(C(=O)NCCc3cc(F)c(N4CCN[C@@H](C)C4)cc3F)sc2n1` [Compound I-210], the IC50 is 2000 to 10000 nM against USP25 and 200 to 2000 nM against USP28.
The corresponding values for `Cc1ccc2c(N)c(C(=O)NCCc3ccc(N4CCNCC4)cc3)sc2n1` [Example I-1, 3-Amino-6-methyl-N-(4-(piperazin-1-yl)phenethyl)thieno[2,3-b]pyridine-2-carboxamide] are 200 to 2000 nM and 200 to 2000 nM.
The corresponding values for `Cc1ccc2c(N)c(C(=O)NCCc3ccc(N4CCNCC4)c(F)c3)sc2n1` [Example I-10, 3-Amino-N-(3-fluoro-4-(piperazin-1-yl)phenethyl)-6-methylthieno[2,3-b]pyridine-2-carboxamide] are 200 to 2000 nM and 2000 to 10000 nM.
Take `Cc1ccc2c(N)c(C(=O)NCCc3cc(F)c(N4CCNCC4)cc3F)sc2n1` [Example I-11, 3-Amino-N-(2,5-difluoro-4-(piperazin-1-yl)phenethyl)-6-methylthieno[2,3-b]pyridine-2-carboxamide]: the IC50 at USP25 and against USP28 was 200 to 2000 nM throughout.
As to `Cc1ccc2c(N)c(C(=O)NCCc3ccc(N4CCNCC4)c(OC(F)F)c3)sc2n1` [Example I-73, 3-Amino-N-(3-(difluoromethoxy)-4-(piperazin-1-yl)phenethyl)-6-methylthieno[2,3-b]pyridine-2-carboxamide], the IC50 at USP25 and against USP28 was 200 to 2000 nM throughout.
For `Cc1ccc2c(N)c(C(=O)NCCc3ccc(N4CCN(C5CCC5)CC4)cc3)sc2n1` [Example I-75], the IC50 at USP25 and on USP28 was 200 to 2000 nM in each case.
On to `Cc1ccc2c(N)c(C(=O)NCCc3ccc(N4CCNCC4)cc3Cl)sc2n1` [Example I-76], for which the IC50 on USP25 was 200 to 2000 nM; against USP28, less than 200 nM.
For `Cc1ccc2c(N)c(C(=O)NCCc3ccc(N4CCNCC4)c(Cl)c3)sc2n1` [Example I-77], the IC50 against USP25 and against USP28 was 200 to 2000 nM throughout.
Take `CCc1cc(CCNC(=O)c2sc3nc(C)ccc3c2N)ccc1N1CCNCC1` [Example I-78]: the IC50 was 200 to 2000 nM against USP25 and less than 200 nM at USP28.
The corresponding values for `CN[C@H]1CCN(c2ccc(CCNC(=O)c3sc4nc(C)ccc4c3N)cc2Cl)C1` [Example I-79] are 200 to 2000 nM and 200 to 2000 nM.
Regarding `Cc1ccc2c(N)c(C(=O)NCCc3ccc(N4CCNCC4)cc3C3CC3)sc2n1` [Example I-81], the IC50 at USP25 and on USP28 was less than 200 nM each time.
For the compound `Cc1ccc2c(N)c(C(=O)NCCc3ccc(N4CCNCC4)cc3-c3ccccc3)sc2n1` [Example I-82], the IC50 against USP25 and against USP28 was less than 200 nM throughout.
As for `CCOc1cc(CCNC(=O)c2sc3nc(C)ccc3c2N)ccc1N1CCNCC1` [Example I-83], the IC50 against USP25 and against USP28 was 200 to 2000 nM each time.
`Cc1ccc2c(N)c(C(=O)NCCc3ccc(N4CCNCC4)c(F)c3F)sc2n1` [Example I-84]: the IC50 on USP25 and at USP28 was 200 to 2000 nM in each case.
As to `CN[C@@H]1CCN(c2ccc(CCNC(=O)c3sc4nc(C)ccc4c3N)cc2Cl)C1` [Example I-85], the IC50 against USP25 and against USP28 was 200 to 2000 nM throughout.
With `Cc1ccc2c(N)c(C(=O)NCCc3ccc(N4CCN[C@H](CO)C4)cc3)sc2n1` [Example I-86], the IC50 on USP25 and against USP28 was 200 to 2000 nM throughout.
With `Cc1ccc2c(N)c(C(=O)NCCc3ccc(N4CCN[C@@H](CO)C4)cc3)sc2n1` [Example I-87], the IC50 at USP25 is 200 to 2000 nM; on USP28 it was less than 200 nM.
The corresponding values for `Cc1ccc2c(N)c(C(=O)NCCc3ccc(N4CC5CCC(C4)N5)c(F)c3)sc2n1` [Example I-88] are 200 to 2000 nM and less than 200 nM.
In the case of `Cc1ccc2c(N)c(C(=O)NCCc3ccc(N4CCNCC4)cc3C)sc2n1` [Example I-89], the IC50 against USP25 was 200 to 2000 nM; against USP28, less than 200 nM.
The corresponding values for `Cc1ccc2c(N)c(C(=O)NCCc3ccc4c(c3)CNCC4)sc2n1` [Example I-90] are 200 to 2000 nM and 200 to 2000 nM.
With `Cc1ccc2c(N)c(C(=O)N[C@H]3C[C@@H](c4ccc(N5CCNCC5)cc4)C3)sc2n1` [Example I-91, cis-3-Amino-6-methyl-N-(3-(4-(piperazin-1-yl)phenyl)cyclobutyl)thieno [2,3-b]pyridine-2-carboxamide], the concentration for half-maximal inhibition (IC50) against USP25 and at USP28 was 200 to 2000 nM throughout.
For `Cc1ccc2c(N)c(C(=O)N[C@H]3C[C@H](c4ccc(N5CCNCC5)cc4)C3)sc2n1` [Example I-92, trans-3-amino-6-methyl-N-(3-(4-(piperazin-1-yl)phenyl)cyclobutyl)thieno[2,3-b]pyridine-2-carboxamide], the IC50 against USP25 and on USP28 was 200 to 2000 nM each time.
For the compound `Cc1ccc2c(N)c(C(=O)NCCc3cc(F)c(N4C[C@@H]5CCN[C@@H]5C4)cc3F)sc2n1` [Example I-95], the results for the IC50 at USP25 and against USP28 were 200 to 2000 nM and less than 200 nM, respectively.
Take `Cc1ccc2c(N)c(C(=O)NCCc3cc(F)c(N4C[C@H]5CCN[C@H]5C4)cc3F)sc2n1` [Example I-96]: the results for the IC50 against USP25 and at USP28 were 200 to 2000 nM and less than 200 nM, respectively.
In the case of `Cc1nc2sc(C(=O)NC[C@@H](C)c3cc(F)c(N4CCNCC4)cc3F)c(N)c2cc1F` [Example I-99], the IC50 against USP25 and against USP28 was 2000 to 10000 nM throughout.
`Cc1nc2sc(C(=O)NC[C@H](C)c3cc(F)c(N4CCNCC4)cc3F)c(N)c2cc1F` [Example I-100]: the IC50 against USP25 was in the range of 2000 to 10000 nM; against USP28 it was 200 to 2000 nM.
Take `Nc1nc2sc(C(=O)NCCc3ccc(N4CCNCC4)cc3)c(N)c2cc1F` [Example I-115, 3,6-Diamino-5-fluoro-N-(4-(piperazin-1-yl)phenethyl)thieno[2,3-b]pyridine-2-carboxamide]: the IC50 was 200 to 2000 nM at USP25 and less than 200 nM on USP28.
